Reference: US20210275577A1, “MOLECULAR HYDROGEN-CONTAINING COMPOSITION FOR REGULATING INTRACELLULAR SIGNAL TRANSDUCTION” (MiZ Company Limited, priority 2020, published 2021)
Where two headings read alike, the source gives them in different places.

Assays:
[1] = CLP model mice, hydrogen gas treatment group; comparison value 74 mg/dL
Description: (§1) Cecal ligation and puncture (CLP) or sham surgery were performed on 9-week-old C57BL/6 male mice. Then, the CLP model mice were forced to inhale a 7% hydrogen gas. The inhalation time were two hours per day for one group and continuous 24 hours for the other group. The mice were housed in a chamber in which the concentration of a hydrogen gas could be maintained by a constant supply of a hydrogen gas from a gas generating apparatus (MHG-2000α manufactured by MiZ Company Limited), and forced to inhale the hydrogen gas therein. The mice in the control group were forced to inhale air not containing hydrogen. Mice were bred under a hydrogen gas atmosphere for one week, and the survival rate was evaluated. The serum inflammatory cytokine levels were evaluated using a Quantikine ELISA Kit (INFO) at 24 hours after CLP. The liver, the intestine, and the lung of mice were evaluated by RNA sequencing after inhalation of a hydrogen gas. Data were analyzed using Ingenuity Pathways Analysis (IPA: Qiagen Inc.). Additionally, expression of inflammatory genes in the intestine was investigated by RT-PCR.

[2] = test system: IL-6; conditions: 24 hours after CLP
Description: as §1

[3] = test system: TNF-α; conditions: 24 hours after CLP
Description: as §1

[4] = test system: cecal ligation and puncture (CLP) model mice
Description: as §1

[5] = test system: genes related to glycolysis and gluconeogenesis; inflammatory signal transduction pathways
Description: as §1

[6] = after inhalation of a hydrogen gas
[7] = room temperature, normal pressure; cited from earlier work

## [HH] [hydrogen gas, molecular hydrogen]
[1]
  blood glucose level: 127 mg/dL
[2]
  serum IL-6 level: attenuated
[3]
  serum TNF-α level: attenuated
[4]; 7% hydrogen gas, continuous inhalation over 24 hours for 7 days, control 40%, p<0.05, n=20 vs. 20
  survival rate: 75%
[4]; continuous inhalation time increased to five hours, 12 hours, and 24 hours
  survival rate: improved
[4]; continuous inhalation time per day one hour
  survival rate vs control: no difference from control was observed
[4]; continuous inhalation time two hours
  survival rate vs control: differences started to be observed
[5]; hydrogen inhalation time two hours or longer per day
  change in levels of genes vs control: differences started to be observed
[5]; liver and intestine of the CLP model at 24 hours
  inflammatory signal transduction pathways (acute phase response signaling, STAT pathway), z-scores: inactive
[5]; liver, GO and pathway enrichment analysis
  genes related to glycolysis and gluconeogenesis: upregulation
[6]
  time for hydrogen to reach the liver: ≥ 10 min
  time for hydrogen to reach the lung: rapidly
[7]
  concentration dissolved in water (solubility): approximately 1.6 ppm
